Test results as given in ChEMBL document CHEMBL1201862, “PubChem BioAssay data set” (2004).
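Briefly, cells in 96-well plates were exposed to five compound concentrations for 48 h, and endpoints were estimated by linear interpolation. At the GI50, growth is halved.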 Active and inactive are the calls of the source. Cut-off read from the data, not from the text of the source: active = GI50 up to about 1.1 µM and inactive = higher.

How the values were obtained:
Assay in all cases: inhibition of tumour cell growth, NCI panel, 48 h
[1] = test system: SNB-75
[2] = test system: NCI-H23
[3] = test system: SF-295
[4] = test system: IGROV-1
[5] = test system: SK-MEL-5
[6] = test system: COLO 205
[7] = test system: HT-29
[8] = test system: SW-620
[9] = test system: OVCAR-4
[10] = test system: KM12
[11] = test system: LOX IMVI
[12] = test system: SN12C
[13] = test system: SK-MEL-2
[14] = test system: HCC 2998
[15] = test system: CCRF-CEM
[16] = test system: TK-10
[17] = test system: NCI/ADR-RES

Structure (SMILES): Cc1ccc(Oc2ccc(C)cc2[N+](=O)[O-])cc1
- GI50 [1]: 22.9 µM (inactive)
- GI50 [2]: 31.5 µM (inactive)
- GI50 [3]: > 100 µM (inactive)
- GI50 [4]: > 100 µM (inactive)
- GI50 [5]: 29.8 µM (inactive)
- GI50 [6]: > 100 µM (inactive)
- GI50 [7]: 40.7 µM (inactive)
- GI50 [8]: > 100 µM (inactive)
- GI50 [9]: 6.12 µM (inactive)
- GI50 [10]: > 100 µM (inactive)
- GI50 [11]: 40.1 µM (inactive)
- GI50 [12]: > 100 µM (inactive)
- GI50 [13]: > 100 µM (inactive)
- GI50 [14]: > 100 µM (inactive)
- GI50 [15]: 36.7 µM (inactive)
- GI50 [16]: > 100 µM (inactive)

Structure (SMILES): CC1(CO)C(O)CCC2(C)C1CCC1CC3CC12CCC3(O)CO (configuration not stated)
- GI50 [1]: > 51.8 µM (inactive)
- GI50 [2]: 4.91 µM (inactive)
- GI50 [3]: 2.19 µM (inactive)
- GI50 [4]: > 100 µM (inactive)
- GI50 [17]: 6.67 µM (inactive)
- GI50 [5]: 5.83 µM (inactive)
- GI50 [6]: > 100 µM (inactive)
- GI50 [7]: 6.5 µM (inactive)
- GI50 [8]: 9.75 µM (inactive)
- GI50 [9]: > 100 µM (inactive)
- GI50 [10]: > 100 µM (inactive)
- GI50 [11]: 4.72 µM (inactive)
- GI50 [12]: 16.7 µM (inactive)
- GI50 [13]: > 100 µM (inactive)
- GI50 [14]: 12.1 µM (inactive)
- GI50 [15]: 2.84 µM (inactive)

Structure (SMILES): COC(=O)C1=C(C(=O)OC)SC(=C(/N=N/c2ccccc2)c2ccccc2)S1
- GI50 [1]: > 100 µM (inactive)
- GI50 [2]: > 100 µM (inactive)
- GI50 [3]: > 100 µM (inactive)
- GI50 [4]: > 100 µM (inactive)
- GI50 [5]: > 100 µM (inactive)
- GI50 [6]: > 100 µM (inactive)
- GI50 [7]: > 100 µM (inactive)
- GI50 [8]: > 100 µM (inactive)
- GI50 [9]: > 100 µM (inactive)
- GI50 [10]: > 100 µM (inactive)
- GI50 [11]: > 100 µM (inactive)
- GI50 [12]: > 100 µM (inactive)
- GI50 [13]: > 100 µM (inactive)
- GI50 [14]: > 100 µM (inactive)
- GI50 [15]: > 100 µM (inactive)
- GI50 [16]: > 100 µM (inactive)

Structure (SMILES): c1c(N2CCOCC2)s[s+]c1N1CCOCC1
- GI50 [1]: > 100 µM (inactive)
- GI50 [2]: > 100 µM (inactive)
- GI50 [3]: > 100 µM (inactive)
- GI50 [4]: > 100 µM (inactive)
- GI50 [5]: > 100 µM (inactive)
- GI50 [7]: > 100 µM (inactive)
- GI50 [8]: > 100 µM (inactive)
- GI50 [9]: > 100 µM (inactive)
- GI50 [10]: > 100 µM (inactive)
- GI50 [11]: > 100 µM (inactive)
- GI50 [12]: > 100 µM (inactive)
- GI50 [13]: 7.06 µM (inactive)
- GI50 [14]: > 100 µM (inactive)
- GI50 [15]: > 100 µM (inactive)
- GI50 [16]: 76.6 µM (inactive)

Structure (SMILES): COc1ccc(S(=O)(=O)c2ccccc2[N+](=O)[O-])cc1
- GI50 [1]: 21.9 µM (inactive)
- GI50 [2]: 98.9 µM (inactive)
- GI50 [3]: 62.8 µM (inactive)
- GI50 [4]: > 100 µM (inactive)
- GI50 [5]: 65 µM (inactive)
- GI50 [6]: > 100 µM (inactive)
- GI50 [7]: > 100 µM (inactive)
- GI50 [8]: > 100 µM (inactive)
- GI50 [9]: > 100 µM (inactive)
- GI50 [10]: > 100 µM (inactive)
- GI50 [11]: 91.4 µM (inactive)
- GI50 [12]: 86.1 µM (inactive)
- GI50 [13]: > 100 µM (inactive)
- GI50 [14]: > 100 µM (inactive)
- GI50 [15]: > 100 µM (inactive)
- GI50 [16]: > 100 µM (inactive)

Structure (SMILES): Cc1ccc(NC(=O)/C(CC(=O)c2c[n+]([O-])c3ccccc3[n+]2[O-])=N\NC(=O)C[n+]2ccccc2)cc1
- GI50 [1]: > 100 µM (inactive)
- GI50 [3]: > 100 µM (inactive)
- GI50 [4]: > 100 µM (inactive)
- GI50 [5]: > 100 µM (inactive)
- GI50 [6]: > 100 µM (inactive)
- GI50 [7]: > 100 µM (inactive)
- GI50 [8]: > 100 µM (inactive)
- GI50 [9]: 64.1 µM (inactive)
- GI50 [10]: > 100 µM (inactive)
- GI50 [11]: > 100 µM (inactive)
- GI50 [12]: > 100 µM (inactive)
- GI50 [13]: > 100 µM (inactive)
- GI50 [14]: > 100 µM (inactive)
- GI50 [15]: > 100 µM (inactive)
- GI50 [16]: > 100 µM (inactive)

Structure (SMILES): CCOC(=O)/C(C#N)=C(N)/C(=N\Nc1cccc(C(F)(F)F)c1)C(=O)OCC
- GI50 [1]: > 100 µM (inactive)
- GI50 [2]: > 100 µM (inactive)
- GI50 [3]: > 100 µM (inactive)
- GI50 [4]: > 100 µM (inactive)
- GI50 [5]: > 100 µM (inactive)
- GI50 [6]: > 100 µM (inactive)
- GI50 [7]: > 100 µM (inactive)
- GI50 [8]: > 100 µM (inactive)
- GI50 [9]: > 100 µM (inactive)
- GI50 [11]: > 100 µM (inactive)
- GI50 [12]: > 100 µM (inactive)
- GI50 [13]: > 100 µM (inactive)
- GI50 [14]: > 100 µM (inactive)
- GI50 [15]: > 100 µM (inactive)
- GI50 [16]: > 100 µM (inactive)

Structure (SMILES): COc1nc(N)c(NC(C)=O)c(=O)n1C
- GI50 [1]: > 100 µM (inactive)
- GI50 [2]: > 100 µM (inactive)
- GI50 [3]: > 100 µM (inactive)
- GI50 [4]: > 100 µM (inactive)
- GI50 [6]: > 100 µM (inactive)
- GI50 [7]: > 100 µM (inactive)
- GI50 [8]: > 100 µM (inactive)
- GI50 [9]: > 100 µM (inactive)
- GI50 [10]: > 100 µM (inactive)
- GI50 [11]: > 100 µM (inactive)
- GI50 [12]: > 100 µM (inactive)
- GI50 [13]: > 100 µM (inactive)
- GI50 [14]: > 100 µM (inactive)
- GI50 [15]: > 100 µM (inactive)
- GI50 [16]: > 100 µM (inactive)

Structure (SMILES): CCOC(=O)Nc1ccc(S(=O)(=O)OC)cc1.CCOC(=O)Nc1ccc(S(=O)(=O)OC)cc1.NC(=O)NCCO
- GI50 [1]: > 50 µM (inactive)
- GI50 [2]: > 50 µM (inactive)
- GI50 [3]: > 50 µM (inactive)
- GI50 [4]: > 50 µM (inactive)
- GI50 [5]: > 50 µM (inactive)
- GI50 [6]: 30.9 µM (inactive)
- GI50 [7]: 31.8 µM (inactive)
- GI50 [8]: 28.8 µM (inactive)
- GI50 [9]: 41.9 µM (inactive)
- GI50 [10]: > 50 µM (inactive)
- GI50 [11]: 21.3 µM (inactive)
- GI50 [12]: > 50 µM (inactive)
- GI50 [13]: > 50 µM (inactive)
- GI50 [14]: > 50 µM (inactive)
- GI50 [15]: 23.3 µM (inactive)
- GI50 [16]: 48 µM (inactive)

Structure (SMILES): C/C=C1/C(=Cc2[nH]c(C=c3[nH]/c(=C/C4=NC(=O)C(CC)=C4C)c(C)c3CCC(=O)O)c(CCC(=O)O)c2C)NC(=O)C1C (configuration not stated)
- GI50 [1]: 4.79 µM (inactive)
- GI50 [2]: 21.5 µM (inactive)
- GI50 [3]: 6.65 µM (inactive)
- GI50 [4]: 3.38 µM (inactive)
- GI50 [6]: 18.1 µM (inactive)
- GI50 [7]: 5.11 µM (inactive)
- GI50 [8]: 2.96 µM (inactive)
- GI50 [9]: 11.1 µM (inactive)
- GI50 [10]: 10.8 µM (inactive)
- GI50 [11]: 1.04 µM (active)
- GI50 [12]: 3.3 µM (inactive)
- GI50 [13]: 9.08 µM (inactive)
- GI50 [14]: 11.4 µM (inactive)
- GI50 [15]: 2.1 µM (inactive)
- GI50 [16]: > 50 µM (inactive)

Structure (SMILES): Cc1ccc(/C=C/C(=O)c2ccc([N+](=O)[O-])cc2)cc1
- GI50 [1]: > 100 µM (inactive)
- GI50 [2]: 30.9 µM (inactive)
- GI50 [3]: > 100 µM (inactive)
- GI50 [4]: > 100 µM (inactive)
- GI50 [5]: > 100 µM (inactive)
- GI50 [6]: > 100 µM (inactive)
- GI50 [7]: > 100 µM (inactive)
- GI50 [8]: > 100 µM (inactive)
- GI50 [9]: > 100 µM (inactive)
- GI50 [10]: > 100 µM (inactive)
- GI50 [11]: > 100 µM (inactive)
- GI50 [12]: > 100 µM (inactive)
- GI50 [13]: > 100 µM (inactive)
- GI50 [14]: > 100 µM (inactive)
- GI50 [15]: > 100 µM (inactive)
- GI50 [16]: > 100 µM (inactive)

Structure (SMILES): COC(=O)C1CC2(c3ccccc3)C(=O)c3ccccc3N2O1 (configuration not stated)
- GI50 [1]: 40.5 µM (inactive)
- GI50 [2]: > 100 µM (inactive)
- GI50 [3]: > 100 µM (inactive)
- GI50 [4]: > 100 µM (inactive)
- GI50 [5]: 74.8 µM (inactive)
- GI50 [6]: 98.4 µM (inactive)
- GI50 [7]: 33.3 µM (inactive)
- GI50 [8]: 39.3 µM (inactive)
- GI50 [9]: > 100 µM (inactive)
- GI50 [10]: 72.4 µM (inactive)
- GI50 [11]: 26.1 µM (inactive)
- GI50 [12]: 43 µM (inactive)
- GI50 [13]: 39.3 µM (inactive)
- GI50 [14]: > 100 µM (inactive)
- GI50 [15]: 30.3 µM (inactive)
- GI50 [16]: > 100 µM (inactive)

Structure (SMILES): CC1(C)OC(C(N)=O)=C(C(N)=O)O1
- GI50 [1]: > 100 µM (inactive)
- GI50 [2]: > 100 µM (inactive)
- GI50 [3]: > 100 µM (inactive)
- GI50 [4]: > 100 µM (inactive)
- GI50 [6]: > 100 µM (inactive)
- GI50 [7]: > 100 µM (inactive)
- GI50 [8]: > 100 µM (inactive)
- GI50 [9]: > 100 µM (inactive)
- GI50 [10]: > 100 µM (inactive)
- GI50 [11]: > 100 µM (inactive)
- GI50 [12]: > 100 µM (inactive)
- GI50 [13]: > 100 µM (inactive)
- GI50 [14]: > 100 µM (inactive)
- GI50 [15]: > 100 µM (inactive)
- GI50 [16]: > 100 µM (inactive)
